Measured values from US20080200505A1, “Piperidines for the Treatment of Chemokine Mediated Diseases” (ASTRAZENECA AB, priority 2005, published 2008).

These compounds were tested against T1, human H1 receptor (Homo sapiens, UniProt P35367) (assay: Histamine H1 receptor binding, competition displacement of [3H]-pyrilamine). Details: displacement of 1 nM [3H]-pyrilamine; membranes from recombinant CHO-K1 cells expressing the human H1 receptor; 1 hour at room temperature; read-out: H1 pKi (converted).
T1 construct: purchased Euroscreen SA, Brussels, Belgium ES-390-M; host or cells: CHO-K1
Method: Histamine H1 receptor binding activity of compounds of the invention was assessed by competition displacement of 1 nM [3H]-pyrilamine (Amersham, Bucks, Product code TRK 608, specific activity 30 Ci/mmol) to 2 μg membranes prepared from recombinant CHO-K1 cells expressing the human H1 receptor (Euroscreen SA, Brussels, Belgium, product code ES-390-M) in assay buffer (50 mM Tris pH 7.4 containing 2 mM MgCl2, 250 mM sucrose and 100 mM NaCl) for 1 hour at room temperature.
The following compounds of the invention gave inhibition of [3H] pyrilimine binding: […]

T1 sequence (P35367 whole entry): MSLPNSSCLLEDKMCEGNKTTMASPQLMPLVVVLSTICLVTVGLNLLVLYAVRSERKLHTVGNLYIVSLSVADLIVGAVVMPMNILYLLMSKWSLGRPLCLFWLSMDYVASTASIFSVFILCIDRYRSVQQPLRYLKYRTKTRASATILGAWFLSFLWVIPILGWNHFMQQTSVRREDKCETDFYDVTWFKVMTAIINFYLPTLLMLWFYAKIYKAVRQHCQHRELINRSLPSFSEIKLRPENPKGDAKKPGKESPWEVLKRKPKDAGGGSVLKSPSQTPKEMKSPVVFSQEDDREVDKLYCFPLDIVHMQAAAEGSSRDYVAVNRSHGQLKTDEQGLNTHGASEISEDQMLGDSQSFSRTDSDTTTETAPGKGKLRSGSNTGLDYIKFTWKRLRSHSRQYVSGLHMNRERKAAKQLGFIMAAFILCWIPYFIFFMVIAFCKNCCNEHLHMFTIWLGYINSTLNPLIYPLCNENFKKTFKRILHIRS

Row | Compound | Ki [nM]
1 | O=C(O)[C@H]1C2CCC(C2)[C@H]1N1CCC(CN2CCC(Oc3ccc(Cl)c(Cl)c3)CC2)CC1 (mixture of isomers) [Example 3A, (2S,3R) and (2R,3S)-3-(4-{[4-(3,4-dichlorophenoxy)piperidin-1-yl]methyl}piperidin-1-yl)bicyclo[2.2.1]heptane-2-carboxylic acid] | 126
2 | O=C(O)C1CCCC1N1CCC(CN2CCC(Oc3ccc(Cl)c(Cl)c3)CC2)CC1 [Example 4A, (1S,2R) and (1R,2S)-2-(4-{[4-(3,4-dichlorophenoxy)piperidin-1-yl]methyl}piperidin-1-yl)cyclopentanecarboxylate] | 316
3 | O=C(O)[C@@H]1CCCC[C@H]1N1CCC(CN2CCC(Oc3ccc(Cl)c(Cl)c3)CC2)CC1 (racemic) [Example 1A, (1R,2R) and (1S,2S)-2-(4-{[4-(3,4-dichlorophenoxy)piperidin-1-yl]methyl}piperidin-1-yl)cyclohexanecarboxylic acid] | 200
